Measurements from patent US11383241B2, “Mechano-node pore sensing” (The Regents of the University of California, priority 2017, dated 2022).

How the values were obtained:
Assay type in all cases: cell-based, human
[1] = test system: MCF-10A cells; assay: mechano-NPS mechanical phenotyping of Latrunculin-treated MCF-10A cells; conditions: for cellular deformation in the transverse direction (δdeform) compared to control: one hour at 37° C.; for cellular deformation in the transverse direction (δdeform) compared to control / wCDI (whole cell deformability index) compared to untreated control cells: strain εavg˜0.3; for treated cells that do not recover within the 40 ms time window (prolonged recovery): ΔTr>40 ms, untreated 9.7%
From the text: (§1) Platform design, including geometry and sizing, may be configured and adapted to target indications, such as cell type and size range. In this example, the platform comprises of a 30 μm-high microfluidic channel embedded in a polydimethylsiloxane (PDMS) mold bonded to a glass substrate with pre-defined platinum (Pt) electrodes and gold (Au) contact pads (FIG. 1a). The central part of the channel, which we refer to as the “contraction channel”, is long (2055 μm) and narrow (10 or 12 μm-wide) and flanked on either side by a series of nodes and pores that are 85 μm and 25 μm wide, respectively (FIG. 1a, inset). The length of the contraction channel was chosen to provide sufficient time (˜30 ms) over which a cell experiences constant applied strain. The node and pore dimensions were chosen for sufficient signal-to noise ratios. Given the flexibility and ease of device design and fabrication, different contraction channel lengths and node and pore dimensions could be employed. Filters that are 25 μm in width (the width chosen based on the size range of cells measured in these studies, ˜15-20 μm in diameter) are included at the entrance of the microfluidic channel in order to remove cellular clusters that may otherwise clog the device. Applying a constant DC voltage (1 V) across the channel, we employ a four-terminal measurement technique^37-40 to measure the current pulses caused by cells transiting across the microfluidic channel when a non-pulsatile pressure of ˜21 kPa (determined by a commercial pressure gauge, SSI Technologies) is utilized (FIG. 1b and FIG. 2). After low-pass filtering all current versus time data, we employ custom-written software to extract both the magnitude and duration of each current sub-pulse (ΔInp, ΔIc, ΔTcont, and ΔTr in FIG. 1b; FIG. 3).
(§2) We disrupted actin polymerization with Latrunculin A and B (LatA and LatB, Enzo Life Sciences)^50. Prior to deformability measurements, MCF-7 and MCF-10A cells were incubated with 2.5 or 5 μg/mL LatA or LatB in each cell's respective growth medium for one hour at 37° C. and 5% CO2^29, 51, 52. Cells were then released from culture flasks with 0.25% trypsin/EDTA, rinsed once with PBS, centrifuged at […], and re-suspended in PBS at a concentration of ˜100,000 cells/mL. […] They were then permeabilized with 0.1% Triton-X 100 (Sigma-Aldrich) in PBS for 5 min. Cell nuclei and F-actin were then counter-stained with 4′,6-diamidino-2-phenylindole (DAPI, Sigma-Aldrich, 10236276001) and rhodamine phalloidin (Thermo Fisher Scientific, R415), respectively, per manufacturer's protocol, and then imaged with a Zeiss LSM710 confocal microscope.
(§3) To determine De, we measure polystyrene microspheres of known size with the microfluidic channel. Using the values of ΔI/I arising from the microspheres, along with the known values of L and d (the size of the microspheres in this instance), we can numerically solve for De in Equation (5). Once De is known, we can subsequently determine Dcell of a screened cell by numerically solving for d in Equation (5) using the obtained values of ΔInp/I. We can also determine the volume of the deformed cell, Vdeform, by the relationship^39, 57, 58, ΔIc/I˜Vdeform/Vcontraction, where Vcontraction is the volume of the contraction channel. To calculate Ldeform, we assume the cell undergoes an isometric deformation in the direction of both the channel's longitudinal axis and channel height, resulting in an oblate-spheroid shape. From the relationship between the volume and major radius of the oblate spheroid, Vdeform=πwcLdeform^2/6 where wc is the contraction-channel width, we can determine Ldeform from ΔIc/I. We quantify the transverse deformation of the cell, δdeform=Ldeform/Dcell, as it transits the contraction channel.
(§4) As a cell traverses through each section of the channel, the duration of the resulting sub-pulse produced by a cell corresponds to the cell's transit time (ΔT) through that part of the channel. […]

[2] = test system: F-actin filaments; assay: F-actin staining (rhodamine phalloidin) and confocal microscopy of treated cells; conditions: MCF-7 and MCF-10A cells, after one hour incubation; more so with Lat-A than with Lat-B
Description: as §2

[3] = test system: MCF-7 cells; assay: mechano-NPS mechanical phenotyping of Latrunculin-treated MCF-7 cells; conditions: for cellular deformation in the transverse direction (δdeform) compared to control: one hour at 37° C.; for cellular deformation in the transverse direction (δdeform) compared to control / wCDI (whole cell deformability index) compared to untreated control cells: strain εavg˜0.3; for treated cells that instantaneously recover from deformation: ΔTr˜0 ms, untreated 38.3%
From the text: as §1, §2, §3, §4

Compound	change in wCDI as a function of treatment concentration ([1]; 2.5 or 5 μg/mL)	cellular deformation in the transverse direction (δdeform) compared to control ([1]; 2.5 or 5 μg/mL)	wCDI (whole cell deformability index) compared to untreated control cells [1]	treated cells that do not recover within the 40 ms time window (prolonged recovery) [1]	F-actin filaments by staining and confocal microscopy [2]	change in wCDI as a function of treatment concentration ([3]; 2.5 or 5 μg/mL)	cellular deformation in the transverse direction (δdeform) compared to control ([3]; 2.5 or 5 μg/mL)	wCDI (whole cell deformability index) compared to untreated control cells [3]	treated cells that instantaneously recover from deformation [3]
C/C1=C/C(=O)O[C@@H]2C[C@@H](CC[C@H](C)/C=C\C=C\CC1)O[C@@](O)([C@@H]1CSC(=O)N1)C2 [LatA, Latrunculin A]	increased with concentration	significantly reduced	increased	66.7%	inhibited	increased with concentration	significantly reduced	increased	8.1%
C/C1=C/C(=O)O[C@@H]2C[C@@H](CC[C@H](C)/C=C\CC1)O[C@@](O)([C@@H]1CSC(=O)N1)C2 [LatB, Latrunculin B]		significantly reduced	no detectable change	41.4%	inhibited		significantly reduced	increased	24.2%
